System: 454973-116-R2-J3-PDC spheroids, viability, % test/control
Test: Anticancer human tumor 454973-116-R2-J3-PDC patient-derived pancreatic carcinoma cell line growth inhibition [GQUAD]
Conditions: spheroids with HUVEC and MSC; for IC50: curve of first compound; for viability, T/C: stronger effect = lower value
Procedure, shortened: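 Tumor cells were grown as complex spheroids with HUVEC endothelial cells and mesenchymal stem cells as stroma. G-quadruplex stabilizers were combined with targeted agents over half-log dilutions from near the clinical Cmax, or from 10 microM.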

[1] = second compound 0.0316 µM, first compound 0.0316 µM
[2] = second compound 0.0316 µM, first compound 0.1 µM
[3] = second compound 0.0316 µM, first compound 0.316 µM
[4] = second compound 0.0316 µM, first compound 1 µM
[5] = second compound 0.0316 µM, first compound 3.16 µM
[6] = second compound 0.0316 µM, first compound 10 µM
[7] = second compound 0.1 µM, first compound 0.0316 µM
[8] = second compound 0.1 µM, first compound 0.1 µM
[9] = second compound 0.1 µM, first compound 0.316 µM
[10] = second compound 0.1 µM, first compound 1 µM
[11] = second compound 0.1 µM, first compound 3.16 µM
[12] = second compound 0.1 µM, first compound 10 µM
[13] = second compound 0.316 µM, first compound 0.0316 µM
[14] = second compound 0.316 µM, first compound 0.1 µM
[15] = second compound 0.316 µM, first compound 0.316 µM
[16] = second compound 0.316 µM, first compound 1 µM
[17] = second compound 0.316 µM, first compound 3.16 µM
[18] = second compound 0.316 µM, first compound 10 µM
[19] = second compound 1 µM, first compound 0.0316 µM
[20] = second compound 1 µM, first compound 0.1 µM
[21] = second compound 1 µM, first compound 0.316 µM
[22] = second compound 1 µM, first compound 1 µM
[23] = second compound 1 µM, first compound 3.16 µM
[24] = second compound 1 µM, first compound 10 µM
[25] = second compound 3.16 µM, first compound 0.0316 µM
[26] = second compound 3.16 µM, first compound 0.1 µM
[27] = second compound 3.16 µM, first compound 0.316 µM
[28] = second compound 3.16 µM, first compound 1 µM
[29] = second compound 3.16 µM, first compound 3.16 µM
[30] = second compound 3.16 µM, first compound 10 µM
[31] = second compound 10 µM, first compound 0.0316 µM
[32] = second compound 10 µM, first compound 0.1 µM
[33] = second compound 10 µM, first compound 0.316 µM
[34] = second compound 10 µM, first compound 1 µM
[35] = second compound 10 µM, first compound 3.16 µM
[36] = second compound 10 µM, first compound 10 µM
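Also: spheroids exposed to compounds for seven days.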
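For viability, T/C in this document: 100% = DMSO vehicle control viability.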

## C=CCn1c(=O)c2cnc(Nc3ccc(N4CCN(C)CC4)cc3)nc2n1-c1cccc(C(C)(C)O)n1 + CN(C)c1ccc(Nc2c3ccc(NC(=O)CCN4CCCC4)cc3nc3cc(NC(=O)CCN4CCCC4)ccc23)cc1
Second compound 0.0316 µM
  IC50: 433 nM
Second compound 0.1 µM
  IC50: 350 nM
Second compound 0.316 µM
  IC50: 399 nM
Second compound 1 µM
  IC50: 365 nM
Second compound 3.16 µM
  IC50: 423 nM
Second compound 10 µM
  IC50: 431 nM
[1]
  viability, T/C: 109%
[2]
  viability, T/C: 89.4%
[3]
  viability, T/C: 65.3%
[4]
  viability, T/C: 16.2%
[5]
  viability, T/C: 7.05%
[6]
  viability, T/C: 8.82%
[7]
  viability, T/C: 108%
[8]
  viability, T/C: 98.7%
[9]
  viability, T/C: 51.8%
[10]
  viability, T/C: 19.7%
[11]
  viability, T/C: 6.15%
[12]
  viability, T/C: 9.87%
[13]
  viability, T/C: 99.4%
[14]
  viability, T/C: 90.7%
[15]
  viability, T/C: 59.2%
[16]
  viability, T/C: 15.8%
[17]
  viability, T/C: 6.5%
[18]
  viability, T/C: 9.33%
[19]
  viability, T/C: 82.9%
[20]
  viability, T/C: 89.5%
[21]
  viability, T/C: 55.6%
[22]
  viability, T/C: 11.3%
[23]
  viability, T/C: 7.68%
[24]
  viability, T/C: 9.81%
[25]
  viability, T/C: 85.2%
[26]
  viability, T/C: 83.2%
[27]
  viability, T/C: 61.9%
[28]
  viability, T/C: 14.7%
[29]
  viability, T/C: 8.4%
[30]
  viability, T/C: 12.1%
[31]
  viability, T/C: 71.4%
[32]
  viability, T/C: 78.3%
[33]
  viability, T/C: 57.8%
[34]
  viability, T/C: 25.7%
[35]
  viability, T/C: 11.2%
[36]
  viability, T/C: 10.8%

## COc1ncnc(C2CC2)c1-c1ncc2cnn(Cc3ccc(-c4nc(C(F)(F)F)cn4C(C)C)cc3)c2n1 + CN(C)c1ccc(Nc2c3ccc(NC(=O)CCN4CCCC4)cc3nc3cc(NC(=O)CCN4CCCC4)ccc23)cc1
Second compound 0.0316 µM
  IC50: > 10000 nM
Second compound 0.1 µM
  IC50: > 10000 nM
Second compound 0.316 µM
  IC50: > 10000 nM
Second compound 1 µM
  IC50: > 10000 nM
Second compound 3.16 µM
  IC50: > 10000 nM
Second compound 10 µM
  IC50: > 10000 nM
[1]
  viability, T/C: 104%
[2]
  viability, T/C: 113%
[3]
  viability, T/C: 97.6%
[4]
  viability, T/C: 102%
[5]
  viability, T/C: 99.5%
[6]
  viability, T/C: 102%
[7]
  viability, T/C: 102%
[8]
  viability, T/C: 114%
[9]
  viability, T/C: 114%
[10]
  viability, T/C: 108%
[11]
  viability, T/C: 84.8%
[12]
  viability, T/C: 95.4%
[13]
  viability, T/C: 94.2%
[14]
  viability, T/C: 104%
[15]
  viability, T/C: 102%
[16]
  viability, T/C: 101%
[17]
  viability, T/C: 91.6%
[18]
  viability, T/C: 90.6%
[19]
  viability, T/C: 96.3%
[20]
  viability, T/C: 96.2%
[21]
  viability, T/C: 101%
[22]
  viability, T/C: 106%
[23]
  viability, T/C: 94.2%
[24]
  viability, T/C: 97.1%
[25]
  viability, T/C: 86.2%
[26]
  viability, T/C: 91.6%
[27]
  viability, T/C: 105%
[28]
  viability, T/C: 87%
[29]
  viability, T/C: 93.5%
[30]
  viability, T/C: 78.5%
[31]
  viability, T/C: 71%
[32]
  viability, T/C: 69.4%
[33]
  viability, T/C: 77.2%
[34]
  viability, T/C: 66.5%
[35]
  viability, T/C: 61.9%
[36]
  viability, T/C: 50.8%

## CC1COCCN1c1cc(-c2ccnn2C)c2ccnc(-c3ccn[nH]3)c2n1 (stereo not drawn) + Cc1[nH]c2ccc(F)cc2c1-c1nc2c3cccnc3c3ncccc3c2[nH]1
Second compound 0.0316 µM
  IC50: 162 nM
Second compound 0.1 µM
  IC50: 171 nM
Second compound 0.316 µM
  IC50: 168 nM
Second compound 1 µM
  IC50: 158 nM
Second compound 3.16 µM
  IC50: 116 nM
Second compound 10 µM
  IC50: 117 nM
[1]
  viability, T/C: 97.4%
[2]
  viability, T/C: 66.8%
[3]
  viability, T/C: 26.6%
[4]
  viability, T/C: 23.2%
[5]
  viability, T/C: 26.3%
[6]
  viability, T/C: 23.6%
[7]
  viability, T/C: 98.1%
[8]
  viability, T/C: 67.1%
[9]
  viability, T/C: 30.6%
[10]
  viability, T/C: 23.3%
[11]
  viability, T/C: 24%
[12]
  viability, T/C: 26.4%
[13]
  viability, T/C: 97.8%
[14]
  viability, T/C: 65.8%
[15]
  viability, T/C: 31%
[16]
  viability, T/C: 20.6%
[17]
  viability, T/C: 23.4%
[18]
  viability, T/C: 21.9%
[19]
  viability, T/C: 87%
[20]
  viability, T/C: 62%
[21]
  viability, T/C: 32.2%
[22]
  viability, T/C: 18.7%
[23]
  viability, T/C: 20.3%
[24]
  viability, T/C: 22.8%
[25]
  viability, T/C: 92.2%
[26]
  viability, T/C: 52.9%
[27]
  viability, T/C: 30.2%
[28]
  viability, T/C: 20.8%
[29]
  viability, T/C: 23.5%
[30]
  viability, T/C: 24.9%
[31]
  viability, T/C: 81.6%
[32]
  viability, T/C: 53.1%
[33]
  viability, T/C: 29.8%
[34]
  viability, T/C: 18.3%
[35]
  viability, T/C: 23.1%
[36]
  viability, T/C: 22.6%

## CC1COCCN1c1cc(C2(S(C)(=N)=O)CC2)nc(-c2ccnc3[nH]ccc23)n1 (stereo not drawn) + Cc1[nH]c2ccc(F)cc2c1-c1nc2c3cccnc3c3ncccc3c2[nH]1
Second compound 0.0316 µM
  IC50: 5870 nM
Second compound 0.1 µM
  IC50: 5360 nM
Second compound 0.316 µM
  IC50: 5070 nM
Second compound 1 µM
  IC50: 6490 nM
Second compound 3.16 µM
  IC50: 4680 nM
Second compound 10 µM
  IC50: 3490 nM
[1]
  viability, T/C: 101%
[2]
  viability, T/C: 102%
[3]
  viability, T/C: 121%
[4]
  viability, T/C: 96.5%
[5]
  viability, T/C: 76%
[6]
  viability, T/C: 28.1%
[7]
  viability, T/C: 106%
[8]
  viability, T/C: 96.9%
[9]
  viability, T/C: 110%
[10]
  viability, T/C: 107%
[11]
  viability, T/C: 68.7%
[12]
  viability, T/C: 27.9%
[13]
  viability, T/C: 99.7%
[14]
  viability, T/C: 110%
[15]
  viability, T/C: 110%
[16]
  viability, T/C: 103%
[17]
  viability, T/C: 64.8%
[18]
  viability, T/C: 28.7%
[19]
  viability, T/C: 106%
[20]
  viability, T/C: 104%
[21]
  viability, T/C: 109%
[22]
  viability, T/C: 108%
[23]
  viability, T/C: 72.6%
[24]
  viability, T/C: 36.5%
[25]
  viability, T/C: 98.3%
[26]
  viability, T/C: 105%
[27]
  viability, T/C: 95.7%
[28]
  viability, T/C: 87%
[29]
  viability, T/C: 60.2%
[30]
  viability, T/C: 30.3%
[31]
  viability, T/C: 86.7%
[32]
  viability, T/C: 84%
[33]
  viability, T/C: 89.6%
[34]
  viability, T/C: 86.2%
[35]
  viability, T/C: 51.8%
[36]
  viability, T/C: 30.1%

From PubChem BioAssay AID2060508 (Molecular Pharmacology Branch, DTP, NCI, 2025)
